The source of these data is US9346797B1, “2-amino 6-(difluoromethyl)-5,5-difluoro-6-phenyl-3,4,5,6-tetrahydropyridines as BACE1 inhibitors” (H. Lundbeck A/S, priority 2014, dated 2016).

The target of one data set is human BACE1 (Homo sapiens (Human), UniProt P56817). The experiment in a line: BACE1 binding assay (SPA-based radioligand binding). The conditions noted are these: pH 4.5, Ki calculated from IC50. The procedure:
The binding assay was performed as SPA-based assay using a biotinylated form of human BACE1 recombinantly expressed and subsequently purified from Freestyle HEK293 cells. The binding assay was run in a 50 mM sodium acetate buffer, pH 4.5 containing 50 mM NaCl and 0.03% Tween-20 in white clear bottom 384 plates (Corning #3653). 10 nM (final concentration) radioligand ([^3H]—N-((1S,2R)-1-benzyl-3-cyclopropylamino-2-hydroxy-propyl)-5-(methanesulfonyl-methyl-amino)-N—((R)-1-phenyl-ethyl)-isophthalamide) (TRQ11569 purchased from GE Healthcare) was mixed with test compound at a given concentration, 6 nM (final concentration) human BACE1 and 25 μg Streptavidin coated PVT core SPA beads (RPNQ0007, GE Healthcare Life Sciences) in a total volume of 40 μl. Several concentrations of each test compound were tested in the assay for IC50 determination. The plates were incubated for one hour at room temperature and counted in a Wallac Trilux counter. Total and non-specific binding were determined using buffer and 1 μM (final concentration) of the high affinity BACE1 reference inhibitor (S)-6-[3-chloro-5-(5-prop-1-ynyl-pyridin-3-yl)-thiophen-2-yl]-2-imino-3,6-dimethyl-tetrahydro-pyrimidin-4-one, respectively. For each test compound, a IC50 value (the concentration mediating 50% inhibition of the specific binding of the radioligand) was determined from concentration-response curve and used to calculate the Ki from the equation Ki=IC50/(1+L/Kd), where L and Kd are the final concentration of the radioligand used in the assay and the dissociation constant of the radioligand, respectively. The Kd of the radioligand was determined from saturation binding experiments.

The next data set deals with P-gp (MDR1). The data set is described as follows: MDCK-MDR1 assay (permeability/efflux). The data set is classed as in vitro ADME. The conditions noted are these: dog, Papp BA/Papp AB, 60-minute incubation, Pgp substrate when ≧2. The procedure:
The permeability of the test compounds was assessed in MDCK-MDR1 cells that were cultured to confluency (4-6 days) in a 96 transwell plate. Test compounds were diluted with the transport buffer (HBSS+1% BSA) to a concentration of 0.5 μM and applied to the apical or basolateral side of the cell monolayer. Permeation of the test compounds from A to B direction or B to A direction was determined in triplicate over a 60-minute incubation time at 37° C. and 5% CO2 with a relative humidity of 95%. Test compounds were quantified by LC-MS/MS analysis based on the peaks area ratios of analyte/IS in both the receiver and donor wells of the transwell plate.
The apparent permeability coefficient Papp (cm/s) was calculated using the equation: Papp=(dCr/dt)×Vr/(A×C0)
Where dCr/dt is the cumulative concentration of compound in the receiver chamber as a function of time (μM/s); Vr is the solution volume in the receiver chamber (0.05 mL on the apical side; 0.25 mL on the basolateral side); A is the surface area for the transport, i.e. 0.0804 cm^2 for the area of the monolayer; CO is the initial concentration in the donor chamber (μM).
Compounds are classified Pgp substrates when efflux ratio (Papp BA/Papp AB) is ≧2.

Molecules are shown by their SMILES. pKi: −log10 of the molar value.

human BACE1, sequence (P56817 46-501): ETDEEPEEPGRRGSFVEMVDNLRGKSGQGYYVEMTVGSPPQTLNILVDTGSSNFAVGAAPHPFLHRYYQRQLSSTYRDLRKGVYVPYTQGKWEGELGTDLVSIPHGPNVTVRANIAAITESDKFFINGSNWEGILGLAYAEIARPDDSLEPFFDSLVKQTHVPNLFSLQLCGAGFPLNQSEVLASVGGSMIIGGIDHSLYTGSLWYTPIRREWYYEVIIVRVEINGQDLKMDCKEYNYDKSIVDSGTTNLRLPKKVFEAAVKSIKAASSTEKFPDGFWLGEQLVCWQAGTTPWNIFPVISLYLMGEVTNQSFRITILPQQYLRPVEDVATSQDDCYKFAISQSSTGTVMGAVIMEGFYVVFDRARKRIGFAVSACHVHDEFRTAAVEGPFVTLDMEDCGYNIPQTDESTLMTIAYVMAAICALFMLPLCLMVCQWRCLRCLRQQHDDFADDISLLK

By pKi is commonly meant the negative decadic logarithm of the Ki, by convention in mol/L. A word on the efflux ratio: it is a quotient of directional permeabilities that is used to spot active efflux. In the case of `NC1=N[C@@](c2cc(NC(=O)c3ccc(Cl)cn3)ccc2F)(C(F)F)C(F)(F)CC1` [Compound 1, (S)—N-(3-(6-amino-2-(difluoromethyl)-3,3-difluoro-2,3,4,5-tetrahydropyridin-2-yl)-4-fluorophenyl)-5-chloropicolinamide], the pKi on human BACE1 was 7.74. Also, in the data set on P-gp (MDR1), the efflux ratio at 60 min, 0.5 μM worked out at 1.16.

Regarding `NC1=N[C@@](c2cc(NC(=O)c3ccc(F)cn3)ccc2F)(C(F)F)C(F)(F)CC1` [Compound 2, (S)—N-(3-(6-amino-2-(difluoromethyl)-3,3-difluoro-2,3,4,5-tetrahydropyridin-2-yl)-4-fluorophenyl)-5-fluoropicolinamide], the pKi at human BACE1 was 7.64. The efflux ratio at 60 min, 0.5 μM with P-gp (MDR1) was determined as 1.75.

`Cc1nc(C(=O)Nc2ccc(F)c([C@@]3(C(F)F)N=C(N)CCC3(F)F)c2)co1` [Compound 4, (S)—N-(3-(6-amino-2-(difluoromethyl)-3,3-difluoro-2,3,4,5-tetrahydropyridin-2-yl)-4-fluorophenyl)-2-methyloxazole-4-carboxamide]: the pKi on human BACE1 was 7.70. Further, the efflux ratio at 60 min, 0.5 μM in the data set on P-gp (MDR1) worked out at 4.01.

Take `NC1=N[C@@](c2cc(NC(=O)c3cnc(C(F)F)cn3)ccc2F)(C(F)F)C(F)(F)CC1` [Compound 6, (S)—N-(3-(6-amino-2-(difluoromethyl)-3,3-difluoro-2,3,4,5-tetrahydropyridin-2-yl)-4-fluorophenyl)-5-(difluoromethyl)pyrazine-2-carboxamide]: the pKi on human BACE1 was 7.70. Moreover, the efflux ratio at 60 min, 0.5 μM with P-gp (MDR1) amounted to 1.36.

As for `N#Cc1ccc(C(=O)Nc2ccc(F)c([C@@]3(C(F)F)N=C(N)CCC3(F)F)c2)nc1` [Compound 7, (S)—N-(3-(6-amino-2-(difluoromethyl)-3,3-difluoro-2,3,4,5-tetrahydropyridin-2-yl)-4-fluorophenyl)-5-cyanopicolinamide], the pKi on human BACE1 is 8.13. The efflux ratio at 60 min, 0.5 μM in the data set on P-gp (MDR1) was 2.43.

Turning to `Cc1csc(C(=O)Nc2ccc(F)c([C@@]3(C(F)F)N=C(N)CCC3(F)F)c2)n1` [Compound 8, (S)—N-(3-(6-amino-2-(difluoromethyl)-3,3-difluoro-2,3,4,5-tetrahydropyridin-2-yl)-4-fluoro-phenyl)-4-methylthiazole-2-carboxamide], at human BACE1, the pKi was 7.15. The efflux ratio at 60 min, 0.5 μM in the data set on P-gp (MDR1) was determined as 0.92.

Regarding `COc1cnc(C(=O)Nc2ccc(F)c([C@@]3(C(F)F)N=C(N)CCC3(F)F)c2)nc1` [Compound 9, (S)—N-(3-(6-amino-2-(difluoromethyl)-3,3-difluoro-2,3,4,5-tetrahydropyridin-2-yl)-4-fluorophenyl)-5-methoxypyrimidine-2-carboxamide], the pKi on human BACE1 is 8.16. Further, the efflux ratio at 60 min, 0.5 μM in the data set on P-gp (MDR1) was 11.

Take `COc1cnc(C(=O)Nc2ccc(F)c([C@@]3(C(F)F)N=C(N)CCC3(F)F)c2)c(C)n1` [Compound 10, (S)—N-(3-(6-amino-2-(difluoromethyl)-3,3-difluoro-2,3,4,5-tetrahydropyridin-2-yl)-4-fluorophenyl)-5-methoxy-3-methylpyrazine-2-carboxamide]: the pKi at human BACE1 was 7.80. Further, the efflux ratio at 60 min, 0.5 μM with P-gp (MDR1) worked out at 0.98.

Turning to `Cc1cc(C#N)cnc1C(=O)Nc1ccc(F)c([C@@]2(C(F)F)N=C(N)CCC2(F)F)c1` [Compound 11, (S)—N-(3-(6-amino-2-(difluoromethyl)-3,3-difluoro-2,3,4,5-tetrahydropyridin-2-yl)-4-fluorophenyl)-5-cyano-3-methylpicolinamide], at human BACE1, the negative logarithm of the Ki (pKi) was 8.11. Besides, the efflux ratio at 60 min, 0.5 μM with P-gp (MDR1) was 2.68.

In the case of `NC1=N[C@@](c2cc(NC(=O)c3ccc(Br)cn3)ccc2F)(C(F)F)C(F)(F)CC1` [Compound 12, (S)—N-(3-(6-amino-2-(difluoromethyl)-3,3-difluoro-2,3,4,5-tetrahydropyridin-2-yl)-4-fluorophenyl)-5-bromopicolinamide], the pKi at human BACE1 was 8.21. For the same molecule, the efflux ratio at 60 min, 0.5 μM in the data set on P-gp (MDR1) turned out to be 1.31.
